In patent US6605635B1, “N-substituted benzyl or phenyl aromatic sulfamides compounds and the use thereof” (Shanghai Institute of Materia Medica Chinese Academy of …, priority 1999, dated 2003):

Assays:
[1] = tested on: rat aconitine-induced arrhythmia; type: in vivo, rats; conditions: hydrochloride salts; for Prophylactic inde: ratio LD50:ED50, rats; for Therapeutic ind: ratio LD50:ED, rats
[2] = tested on: acute myocardial ischemia induced arrhythmia; assay: acute myocardial ischemia induced arrhythmia model (coronary artery ligation) in anesthetized rats; type: in vivo
Excerpt: 1. An acute myocardial ischemia induced arrhythmia model was obtained by conducting chest opening to expose the heart and […] of the anterior descending branch of the coronary artery in anesthetized rats (“Methods in Pharmacological Experiments”, Second Edition, p. 1022, People's Medical Publishing House, Beijing, 1991).

[3] = tested on: beiwutine induced rat arrhythmia; assay: beiwutine induced rat arrhythmia model; type: in vivo
[4] = tested on: ouabain induced guinea pig arrhythmia; assay: ouabain induced guinea pig arrhythmia model; type: in vivo
arrhythmia patients = conditions: cited from earlier work

Row | Compound | Prophylactic inde [1] | Therapeutic ind [1] | further results
1 | N-[3,5-bis(1-Pyrrolidinomethyl)-4-hydroxy]phenyl-N-methyl-4-acetamidobenzenesulfonamide [Compound B-87827] | 3.0 | 2 | 
2 | O=S(=O)(Nc1cc(CN2CCCCC2)c(O)c(CN2CCCCC2)c1)c1cccc2ccccc12 [Compound B-87836, N-[3,5-bis(1-Piperidinomethyl)-4-hydroxy]phenyl-1-naphthalenesulfonamide] | 33.5 | 9.7 | 
3 | N-[3,5-bis(1-Pyrrolidinomethyl)-4-hydroxy]phenyl-N-ethyl-4-toluenesulfonamide [Compound B-86809] | 1.1 | 4.0 | 
4 | Oc1c(CN2CCCC2)cc(Nc2ncnc3ccccc23)cc1CN1CCCC1 [changrolin] |  |  | inhibition of the incidence of ventrical premature beats [2]: 50%; ED50 [3]: 3 mg/kg; amount of ouabain used for inducing ventrical premature beats, ventricular tachycardia and ventricular fibrillation [4]: significantly increase; ventricular premature beats (arrhythmia patients; 2-3 days after oral administration, patients suffering from arrhythmia): disappear; ventricular premature beats and ventricular tachycardia (arrhythmia patients; i.v. injection or instillation, patients): significant reduction or even disappearence; skin side effect (arrhythmia patients; oral administration for over one month, patients, retrogresses after ceasing administration): reversible pigmentation on the skin
5 | N-[3,5-bis(1-Pyrrolidinomethyl)-4-hydroxy]phenyl-4-chlorobenzenesulfonamide [Compound B-86810] | 5.3 |  | 
6 | N-[3,5-bis(1 -Pyrrolidinomethyl)-4-hydroxyl]benzyl-4-chlorobenzenesulfonamide [Compound B-87829] | 55 | 8.6 | 
